# According to ChEMBL document CHEMBL3882728, “Amino-substituted quinazoline derivatives as inhibitors of Beta-catenin/TCF-4 pathway and cancer treatment agents” (2009):
# Assay: Cytotoxicity against human SV5A8 cells expressing SV40 binding sites driving firefly/renilla luciferase reporter gene after 24 hrs by luminometer
# Format: cell-based
# Conditions: SV5A8, 24 h
row,Compound,IC50 [µM]
1,CNc1nc(NCc2ccc(NC(=O)c3ccc(Cl)cc3F)cc2)c2cc(C)ccc2n1,> 2.78
2,Cc1ccc2nc(N(C)C)nc(NCc3ccc(NC(=O)c4ccc(F)cc4)cc3)c2c1,5.82 to 11.6
3,Cc1cc(C)c2nc(N3CCN[C@@H](C)C3)nc(NCc3ccc(NC(=O)c4ccc(F)cc4)cc3)c2c1,> 5.01
4,CNc1nc(NCc2ccc(NC(=O)c3cccnc3)cc2)c2cc([N+](=O)[O-])ccc2n1,> 23.3
5,Cc1ccc2c(NCc3ccc(NC(=O)C4CCN(Cc5ccccc5)CC4)cc3)nc(N3CCC3)nc2c1,9.6 to 17.3
6,CNc1nc(NCc2ccc(NC(=O)c3ccc(Cl)nc3)cc2)c2cccc(C)c2n1,2.89 to 21.6
